Laboratory results published in the kinase profiling compilation of Christmann-Franck et al. (2016).

Legend:
Test in all cases: KINOMEscan competition binding
Settings in all cases: compound 10.0 µM
DCLK3 (human) = DCLK3 (human) (UniProt Q9C098)
SYK (human) = SYK (human) (UniProt P43405)
FGFR1 (human) = FGFR1 (human) (UniProt P11362)
SLK (human) = SLK (human) (UniProt Q9H2G2)
ULK3 (human) = ULK3 (human) (UniProt Q6PHR2)
MAPKAPK2 (human) = MAPKAPK2 (human) (UniProt P49137)
ROCK2 (human) = ROCK2 (human) (UniProt O75116)
LYN (human) = LYN (human) (UniProt P07948)
DMPK (human) = DMPK (human) (UniProt Q09013)
PRKCH (human) = PRKCH (human) (UniProt P24723)
RIPK1 (human) = RIPK1 (human) (UniProt Q13546)
ITK (human) = ITK (human) (UniProt Q08881)
MAPK12 (human) = MAPK12 (human) (UniProt P53778)
CHUK (human) = CHUK (human) (UniProt O15111)
INSRR (human) = INSRR (human) (UniProt P14616)
CAMK1G (human) = CAMK1G (human) (UniProt Q96NX5)
CAMK2D (human) = CAMK2D (human) (UniProt Q13557)
NTRK2 (human) = NTRK2 (human) (UniProt Q16620)
MAP3K12 (human) = MAP3K12 (human) (UniProt Q12852)
TTK (human) = TTK (human) (UniProt P33981)
SRMS (human) = SRMS (human) (UniProt Q9H3Y6)
CDK5 (human) = CDK5 (human) (UniProt Q00535)
MAP2K1 (human) = MAP2K1 (human) (UniProt Q02750)
CSNK2A1 (human) = CSNK2A1 (human) (UniProt P68400)
NEK5 (human) = NEK5 (human) (UniProt Q6P3R8)
MAP2K2 (human) = MAP2K2 (human) (UniProt P36507)
MARK4 (human) = MARK4 (human) (UniProt Q96L34)
CHEK1 (human) = CHEK1 (human) (UniProt O14757)
PKN2 (human) = PKN2 (human) (UniProt Q16513)
TSSK1B (human) = TSSK1B (human) (UniProt Q9BXA7)
RPS6KA6 KD1 (human) = RPS6KA6 KD1 (human) (UniProt Q9UK32)
GSK3B (human) = GSK3B (human) (UniProt P49841)
PLK4 (human) = PLK4 (human) (UniProt O00444)
EPHA1 (human) = EPHA1 (human) (UniProt P21709)
FLT1 (human) = FLT1 (human) (UniProt P17948)
AXL (human) = AXL (human) (UniProt P30530)
CSF1R (human) = CSF1R (human) (UniProt P07333)
SRPK3 (human) = SRPK3 (human) (UniProt Q9UPE1)
PKN1 (human) = PKN1 (human) (UniProt Q16512)
RPS6KA4 KD2 (human) = RPS6KA4 KD2 (human) (UniProt O75676)

Chain of INSRR (human) (P14616 whole entry, looked up): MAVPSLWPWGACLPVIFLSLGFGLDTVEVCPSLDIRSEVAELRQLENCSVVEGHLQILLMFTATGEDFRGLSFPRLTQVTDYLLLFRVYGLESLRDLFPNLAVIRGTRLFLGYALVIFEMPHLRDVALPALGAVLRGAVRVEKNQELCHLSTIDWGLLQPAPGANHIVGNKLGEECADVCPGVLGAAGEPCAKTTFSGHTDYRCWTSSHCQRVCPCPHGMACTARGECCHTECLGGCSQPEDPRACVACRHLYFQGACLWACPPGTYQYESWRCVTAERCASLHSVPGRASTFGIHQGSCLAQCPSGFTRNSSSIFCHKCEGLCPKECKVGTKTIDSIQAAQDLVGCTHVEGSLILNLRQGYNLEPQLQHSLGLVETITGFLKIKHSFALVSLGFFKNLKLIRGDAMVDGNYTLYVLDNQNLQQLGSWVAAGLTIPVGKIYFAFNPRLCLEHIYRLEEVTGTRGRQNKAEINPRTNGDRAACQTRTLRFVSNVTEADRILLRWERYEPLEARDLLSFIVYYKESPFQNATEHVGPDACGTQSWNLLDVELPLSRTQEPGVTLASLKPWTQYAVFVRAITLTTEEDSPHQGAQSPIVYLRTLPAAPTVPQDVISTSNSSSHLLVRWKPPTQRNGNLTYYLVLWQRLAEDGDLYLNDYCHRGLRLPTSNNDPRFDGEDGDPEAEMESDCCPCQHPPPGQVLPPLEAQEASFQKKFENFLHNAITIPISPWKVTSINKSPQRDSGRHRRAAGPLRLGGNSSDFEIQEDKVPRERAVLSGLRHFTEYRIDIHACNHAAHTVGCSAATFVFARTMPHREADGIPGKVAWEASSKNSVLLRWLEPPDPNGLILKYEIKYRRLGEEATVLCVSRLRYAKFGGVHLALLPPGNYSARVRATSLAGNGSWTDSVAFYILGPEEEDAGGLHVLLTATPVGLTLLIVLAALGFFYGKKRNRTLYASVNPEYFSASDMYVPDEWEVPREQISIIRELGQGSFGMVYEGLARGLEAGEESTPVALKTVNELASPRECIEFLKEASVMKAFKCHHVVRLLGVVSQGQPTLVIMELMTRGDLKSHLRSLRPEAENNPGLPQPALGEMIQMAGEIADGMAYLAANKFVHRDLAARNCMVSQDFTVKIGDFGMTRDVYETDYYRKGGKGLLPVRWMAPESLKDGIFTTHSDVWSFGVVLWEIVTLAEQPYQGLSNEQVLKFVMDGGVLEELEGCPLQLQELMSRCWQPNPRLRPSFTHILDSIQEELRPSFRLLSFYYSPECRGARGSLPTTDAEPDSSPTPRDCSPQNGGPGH
Chain of LYN (human) (P07948 whole entry, looked up): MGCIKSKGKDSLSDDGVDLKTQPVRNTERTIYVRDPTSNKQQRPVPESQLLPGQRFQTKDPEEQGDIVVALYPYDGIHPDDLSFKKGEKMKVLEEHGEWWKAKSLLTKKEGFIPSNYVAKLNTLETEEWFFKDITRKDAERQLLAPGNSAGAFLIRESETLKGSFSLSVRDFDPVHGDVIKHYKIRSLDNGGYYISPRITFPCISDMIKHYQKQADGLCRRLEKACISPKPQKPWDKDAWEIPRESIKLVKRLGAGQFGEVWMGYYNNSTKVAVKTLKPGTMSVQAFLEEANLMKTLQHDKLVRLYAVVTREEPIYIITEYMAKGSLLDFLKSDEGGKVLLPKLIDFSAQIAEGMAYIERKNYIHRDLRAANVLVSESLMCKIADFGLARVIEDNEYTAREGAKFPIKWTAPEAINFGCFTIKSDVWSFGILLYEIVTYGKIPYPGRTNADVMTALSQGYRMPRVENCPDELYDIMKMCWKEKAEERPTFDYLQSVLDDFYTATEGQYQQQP
Chain of GSK3B (human) (P49841 whole entry, looked up): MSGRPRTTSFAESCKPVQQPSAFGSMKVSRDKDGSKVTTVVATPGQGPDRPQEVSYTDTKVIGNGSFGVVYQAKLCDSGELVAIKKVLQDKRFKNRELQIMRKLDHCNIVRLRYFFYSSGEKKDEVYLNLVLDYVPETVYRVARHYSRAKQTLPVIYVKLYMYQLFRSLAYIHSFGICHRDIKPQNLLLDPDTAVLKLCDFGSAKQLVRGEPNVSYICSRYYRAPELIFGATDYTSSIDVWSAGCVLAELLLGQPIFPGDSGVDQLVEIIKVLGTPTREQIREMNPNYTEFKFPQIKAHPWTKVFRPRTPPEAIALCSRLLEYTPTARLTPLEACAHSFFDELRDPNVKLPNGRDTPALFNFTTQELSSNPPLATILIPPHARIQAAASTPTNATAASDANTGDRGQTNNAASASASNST
Chain of ULK3 (human) (Q6PHR2 whole entry, looked up): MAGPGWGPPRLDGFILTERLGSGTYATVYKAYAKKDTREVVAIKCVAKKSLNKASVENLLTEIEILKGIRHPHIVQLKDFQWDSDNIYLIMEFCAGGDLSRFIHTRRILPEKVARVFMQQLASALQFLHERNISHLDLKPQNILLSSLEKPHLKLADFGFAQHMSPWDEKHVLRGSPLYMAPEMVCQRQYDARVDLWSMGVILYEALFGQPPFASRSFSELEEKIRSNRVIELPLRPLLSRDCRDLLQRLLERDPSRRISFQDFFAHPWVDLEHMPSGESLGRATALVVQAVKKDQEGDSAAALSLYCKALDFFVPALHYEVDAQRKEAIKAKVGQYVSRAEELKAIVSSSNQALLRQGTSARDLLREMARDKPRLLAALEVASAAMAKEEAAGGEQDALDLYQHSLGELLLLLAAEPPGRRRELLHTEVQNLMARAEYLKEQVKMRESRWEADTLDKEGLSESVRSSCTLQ
Chain of RPS6KA6 KD1 (human) (Q9UK32 whole entry, looked up): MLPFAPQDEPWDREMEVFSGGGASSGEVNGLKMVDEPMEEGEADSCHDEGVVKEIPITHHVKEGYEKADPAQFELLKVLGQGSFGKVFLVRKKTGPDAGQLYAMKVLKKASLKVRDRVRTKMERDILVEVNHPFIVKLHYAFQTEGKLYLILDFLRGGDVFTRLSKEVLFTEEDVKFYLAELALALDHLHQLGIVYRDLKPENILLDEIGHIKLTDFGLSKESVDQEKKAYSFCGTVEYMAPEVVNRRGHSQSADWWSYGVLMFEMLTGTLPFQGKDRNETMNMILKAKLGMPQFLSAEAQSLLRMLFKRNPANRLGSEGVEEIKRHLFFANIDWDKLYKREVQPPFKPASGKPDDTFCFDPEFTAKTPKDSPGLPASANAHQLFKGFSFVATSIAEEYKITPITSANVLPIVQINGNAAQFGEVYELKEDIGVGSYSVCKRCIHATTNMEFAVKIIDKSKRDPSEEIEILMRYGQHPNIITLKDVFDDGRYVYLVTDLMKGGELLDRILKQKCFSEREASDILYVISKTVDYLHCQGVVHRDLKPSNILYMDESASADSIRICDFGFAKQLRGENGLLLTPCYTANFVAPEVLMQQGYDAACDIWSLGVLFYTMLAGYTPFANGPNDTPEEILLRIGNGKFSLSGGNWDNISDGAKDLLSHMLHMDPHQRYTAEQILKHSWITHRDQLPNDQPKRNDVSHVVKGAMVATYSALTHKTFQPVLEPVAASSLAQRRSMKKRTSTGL
Chain of EPHA1 (human) (P21709 whole entry, looked up): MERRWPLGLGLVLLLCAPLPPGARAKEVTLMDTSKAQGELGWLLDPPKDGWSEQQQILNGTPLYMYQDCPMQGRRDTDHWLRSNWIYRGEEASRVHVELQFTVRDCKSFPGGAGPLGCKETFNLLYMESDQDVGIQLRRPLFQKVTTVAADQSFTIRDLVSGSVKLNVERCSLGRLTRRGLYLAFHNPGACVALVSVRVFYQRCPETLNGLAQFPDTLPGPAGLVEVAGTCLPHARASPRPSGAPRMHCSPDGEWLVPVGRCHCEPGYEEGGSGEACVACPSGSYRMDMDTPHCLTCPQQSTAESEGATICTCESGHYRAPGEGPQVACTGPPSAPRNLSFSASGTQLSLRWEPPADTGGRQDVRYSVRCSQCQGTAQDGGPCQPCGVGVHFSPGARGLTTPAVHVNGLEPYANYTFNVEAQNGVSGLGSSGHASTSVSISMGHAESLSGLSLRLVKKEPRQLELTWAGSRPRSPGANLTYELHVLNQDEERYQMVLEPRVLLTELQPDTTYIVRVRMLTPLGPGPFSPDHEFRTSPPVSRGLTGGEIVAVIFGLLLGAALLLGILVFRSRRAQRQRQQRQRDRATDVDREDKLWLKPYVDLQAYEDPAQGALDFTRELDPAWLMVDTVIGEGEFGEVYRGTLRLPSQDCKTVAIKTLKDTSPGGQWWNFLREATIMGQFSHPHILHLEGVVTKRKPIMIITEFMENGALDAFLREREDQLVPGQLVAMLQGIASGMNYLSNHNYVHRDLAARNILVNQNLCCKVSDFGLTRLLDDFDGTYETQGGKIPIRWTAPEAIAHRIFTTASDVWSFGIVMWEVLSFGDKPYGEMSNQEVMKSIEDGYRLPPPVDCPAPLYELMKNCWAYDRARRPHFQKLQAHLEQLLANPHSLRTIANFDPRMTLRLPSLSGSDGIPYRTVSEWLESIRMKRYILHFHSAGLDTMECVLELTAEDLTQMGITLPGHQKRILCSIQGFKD
Chain of CDK5 (human) (Q00535 whole entry, looked up): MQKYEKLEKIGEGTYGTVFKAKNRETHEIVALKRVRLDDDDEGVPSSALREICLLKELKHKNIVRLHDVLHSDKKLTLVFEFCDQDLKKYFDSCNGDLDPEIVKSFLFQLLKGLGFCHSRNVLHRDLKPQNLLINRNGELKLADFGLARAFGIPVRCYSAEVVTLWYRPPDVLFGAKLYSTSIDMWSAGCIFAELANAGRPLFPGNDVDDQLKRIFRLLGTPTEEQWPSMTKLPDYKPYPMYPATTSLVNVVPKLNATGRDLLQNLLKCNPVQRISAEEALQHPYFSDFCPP

Row | Structure (SMILES) | kinase still bound, per cent of control (DCLK3 (human)) [%] | kinase still bound, per cent of control (SYK (human)) [%] | kinase still bound, per cent of control (FGFR1 (human)) [%] | kinase still bound, per cent of control (SLK (human)) [%] | kinase still bound, per cent of control (ULK3 (human)) [%] | kinase still bound, per cent of control (MAPKAPK2 (human)) [%] | kinase still bound, per cent of control (ROCK2 (human)) [%] | kinase still bound, per cent of control (LYN (human)) [%] | kinase still bound, per cent of control (DMPK (human)) [%] | kinase still bound, per cent of control (PRKCH (human)) [%] | kinase still bound, per cent of control (RIPK1 (human)) [%] | kinase still bound, per cent of control (ITK (human)) [%] | kinase still bound, per cent of control (MAPK12 (human)) [%] | kinase still bound, per cent of control (CHUK (human)) [%] | kinase still bound, per cent of control (INSRR (human)) [%] | kinase still bound, per cent of control (CAMK1G (human)) [%] | kinase still bound, per cent of control (CAMK2D (human)) [%] | kinase still bound, per cent of control (NTRK2 (human)) [%] | kinase still bound, per cent of control (MAP3K12 (human)) [%] | kinase still bound, per cent of control (TTK (human)) [%] | other results
1 | O=C1Nc2ccc(I)cc2/C1=C/c1cc(Br)c(O)c(Br)c1 | 100 | 78 | 77 | 100 | 12 | 100 | 55 | 86 | 100 | 100 | 85 | 96 | 74 | 100 | 81 | 44 | 41 | 55 | 80 | 17 | kinase still bound, per cent of control (SRMS (human)): 65%; kinase still bound, per cent of control (CDK5 (human)): 83%; kinase still bound, per cent of control (MAP2K1 (human)): 68%; kinase still bound, per cent of control (CSNK2A1 (human)): 4.2%; kinase still bound, per cent of control (NEK5 (human)): 87%; kinase still bound, per cent of control (MAP2K2 (human)): 74%; kinase still bound, per cent of control (MARK4 (human)): 100%; kinase still bound, per cent of control (CHEK1 (human)): 100%; kinase still bound, per cent of control (PKN2 (human)): 99%; kinase still bound, per cent of control (TSSK1B (human)): 65%; kinase still bound, per cent of control (RPS6KA6 KD1 (human)): 51%; kinase still bound, per cent of control (GSK3B (human)): 91%; kinase still bound, per cent of control (PLK4 (human)): 26%; kinase still bound, per cent of control (EPHA1 (human)): 98%; kinase still bound, per cent of control (FLT1 (human)): 100%; kinase still bound, per cent of control (AXL (human)): 100%; kinase still bound, per cent of control (CSF1R (human)): 71%; kinase still bound, per cent of control (SRPK3 (human)): 7.8%; kinase still bound, per cent of control (PKN1 (human)): 89%; kinase still bound, per cent of control (RPS6KA4 KD2 (human)): 47%
2 | C[C@@H](Oc1cc(-n2cnc3ccc(CN4CCN(C)CC4)cc32)sc1C(N)=O)c1ccccc1C(F)(F)F | 72 | 100 | 37 | 0.25 | 100 | 100 | 16 | 99 | 63 | 90 | 100 | 89 | 95 | 65 | 100 | 58 | 7.3 | 68 | 57 | 95 | kinase still bound, per cent of control (SRMS (human)): 74%; kinase still bound, per cent of control (CDK5 (human)): 100%; kinase still bound, per cent of control (MAP2K1 (human)): 92%; kinase still bound, per cent of control (CSNK2A1 (human)): 13%; kinase still bound, per cent of control (NEK5 (human)): 25%; kinase still bound, per cent of control (MAP2K2 (human)): 79%; kinase still bound, per cent of control (MARK4 (human)): 100%; kinase still bound, per cent of control (CHEK1 (human)): 100%; kinase still bound, per cent of control (PKN2 (human)): 6%; kinase still bound, per cent of control (TSSK1B (human)): 19%; kinase still bound, per cent of control (RPS6KA6 KD1 (human)): 0.6%; kinase still bound, per cent of control (GSK3B (human)): 100%; kinase still bound, per cent of control (PLK4 (human)): 97%; kinase still bound, per cent of control (EPHA1 (human)): 94%; kinase still bound, per cent of control (FLT1 (human)): 100%; kinase still bound, per cent of control (AXL (human)): 41%; kinase still bound, per cent of control (CSF1R (human)): 77%; kinase still bound, per cent of control (SRPK3 (human)): 9.6%; kinase still bound, per cent of control (PKN1 (human)): 46%; kinase still bound, per cent of control (RPS6KA4 KD2 (human)): 0.55%
